Results: patent US4709079A, “Polyprenyl compounds, process for the production thereof and medicines containing same” (priority 1981, dated 1987)
Read-outs that look alike come from different tables or passages of the source. One block for each compound: values may come before it.

Key:
[1] = continuous peroral administration for one week; assay type: in vivo, SD rats; conditions: 50 mg/kg per day and 200 mg/kg per day continuously for one week
gastric membranes = assay: effects on gastric membranes of normal rats (ulceration); assay type: in vivo, Wistar ST rats
Description: Four hours thereafter, the ulceration conditions in the gastric membranes were examined.

[2] = system: carrageenan-induced edema; assay: carrageenan-induced edema controlling test, sole edema method (Experiments 1 and 2); assay type: in vivo, male S.D. rats; conditions: for ED50: Rattus norvegicus, po, read-out: Median effective dose for carrageenan-induced edema ED50; for Control rate (carrageenan-induced edema): groups of 8 rats
Experimental: Effects of controlling carrageenan-induced edema were examined by the sole edema method, see Winter et al.; Pro. […] Exp. Biol. Med., 111, 544 (1962), wherein carrageenan was used as an inflaming agent and male S.D. rats weighing 150-180 g were used as the test animals (each group comprised 5 rats).
The test compound was dissolved in sesame oil and the solution was administered perorally to the rats 6 hours before the administration of the inflaming agent. The volumes of the hind leg soles were measured 3 hours after the administration of the inflaming agent. […] [formula] wherein a is the volume of the hind leg sole before the edema induction and b is the corresponding value after the edema induction. [formula] wherein c represents the average edema rate of the control group and d represents the edema rate of each animal to which the test compound was given.
Carrageenan-induced edema control rates were determined according to formula (2) in the same manner as in Experiment 1 except that each group comprised 8 rats.

[3] = system: adjuvant-induced arthritis; assay: adjuvant-induced arthritis controlling test; assay type: in vivo, F-344 rats; conditions: po; for ED50: Rattus norvegicus, 456 h, read-out: Median effective dose for adjuvant-induced arthritis ED50
Experimental: Arthritis was induced in F-344 rates (6 weeks) (Japanese Charles Liver) according to the method of Winder, C. V., et al; Arthritis Rheum. 12, 472-482 (1969) and the controlling effects were examined. 0.05 ml. of a suspension (6 mg/ml) of Mycobacterium butyricum (Difco) in liquid paraffin was in]ected in the sole of the right leg of each rat to induce arthritis. […] The former was dissolved in sesame oil and the latter was suspended in acacia. The administration of the test compounds was started on the same day as the adjuvant injection. The test compounds were administered perorally every day for 19 days.

[4] = comparison value for Indomethacin; species, sex and source not given; cited from earlier work
[5] = system: cold restraint stress-induced ulcer, gastric membranes; assay: worsening of cold restraint stress-induced ulcer; assay type: in vivo, Wistar rats
Experimental: Cold restraint stress was applied to Wistar rats (7 weeks old) by a conventional method. […] Two hours after the application of stress, the length of ulcer (ulcer index) in the gastric membranes was measured.

in vivo = conditions: rat, po, peroral, 20% solution in sesame oil
[6] = peroral, 6 hours before inflaming agent, measured 3 hours after, groups of 5 rats

health problem [1]: no health problem was observed
Compound: COc1ccc2c(c1)c(CC(=O)OCC=C(C)CCC=C(C)CCC=C(C)C)c(C)n2C(=O)c1ccc(Cl)cc1 [Compound C, 1-(p-Chlorobenzoyl)-2-methyl-5-methoxy-3-indolylacetic acid 3,7,11-trimethyl-2,6,10-dodecatrienyl ester]
Number of ulcerated rats (gastric membranes; dose 153 mg/kg, peroral, 4 hours, fasted normal rats): 0/5
ED50 [2, 6]: 6.5 mg/kg
Control rate (carrageenan-induced edema) ([2]; dose 9 mg/kg, peroral): 40%
Control rate (carrageenan-induced edema) ([2]; dose 18 mg/kg, peroral): 42%
ED50 ([3]; peroral, every day for 19 days): 3.6 mg/kg

Compound: CC(=O)Oc1ccccc1C(=O)OCC=C(C)CCC=C(C)C [Compound E, Acetylsalicylic acid 3,7-dimethyl-2,6-octadienyl ester]
Control rate (carrageenan-induced edema) ([2]; dose 400 mg/kg, peroral): 52%

Compound: COc1ccc2c(c1)c(CC(=O)O)c(C)n2C(=O)c1ccc(Cl)cc1 [Indomethacin]
LD50 [4]: 18 mg/kg
Ulcer index (mean ± S.E.) (gastric membranes; dose 20 mg/kg, peroral, 4 hours, fasted normal rats): 18.0 ± 3.2
Number of ulcerated rats (gastric membranes; rat, in vivo, 20 mg/kg): 5/5
Ulcer index (Mean ± S.E.), length of ulcer ([5]; dose 20.0 mg/kg, peroral, two hours after application of stress): 36.5 ± 7.3
macroscopic observation of gastric ulcer ([5]; rat, in vivo): linear ulcer accompanied with copious bleeding was clearly recognized
stress-induced ulcer ([5]; rat, in vivo): increased significantly
ED50 ([2]; 3 h): 2.9 mg/kg
Control rate (carrageenan-induced edema) ([2]; dose 9 mg/kg, peroral): 38%
ED50 [3]: 1.5 mg/kg
LD50/ED50 ratio in the adjuvant-induced arthritis test ([3]; rat, in vivo): 14-15

Compound: CC(C)=CCCC(C)=CCCC(C)=CCOC(=O)C(C)c1ccc(CC(C)C)cc1 (stereo not shown) [Compound B, 2-(4-isobutylphenyl)propionic acid 3,7,11-trimethyl-2,6,10-dodecatrienyl ester]
Control rate (carrageenan-induced edema) ([2]; dose 60 mg/kg, peroral): 30%

Compound: CC(C)Cc1ccc(C(C)C(=O)O)cc1 (stereo not shown) [Ibuprofen, reference compound]
ED50 [2, 6]: 7.7 mg/kg

Compound: CC(C)=CCCC(C)=CCCC(C)=CCCC(C)=CCOC(=O)Cc1ccccc1Nc1c(Cl)cccc1Cl [Compound A, 2-[(2,6-Dichlorophenyl)amino]phenylacetic acid 3,7,11,15-tetramethyl-2,6,10,14-hexadecatetraenyl ester]
Control rate (carrageenan-induced edema) ([2]; dose 18 mg/kg, peroral): 34%

Compound: COc1ccc2c(c1)c(CC(=O)OCC=C(C)CCC=C(C)CCC=C(C)CCC=C(C)C)c(C)n2C(=O)c1ccc(Cl)cc1 [Compound D, 1-(p-Chlorobenzoyl)-2-methyl-5-methoxy-3-indolylacetic acid 3,7,11,15-tetramethyl-2,6,10,14-hexadecatetraenyl ester]
LD50 (in vivo; female SD rats, read-out: LD50 female): 1530 to 3160 mg/kg
LD50 (in vivo; male SD rats, read-out: LD50 male): 2000 to 2520 mg/kg
health problem [1]: no health problem was observed
Control rate (carrageenan-induced edema) ([2]; dose 9 mg/kg, peroral): 22%
Control rate (carrageenan-induced edema) ([2]; dose 18 mg/kg, peroral): 22%
